From patent publication US8492374B2, “Azaazulene compounds” (Industrial Technology Research Institute, priority 2009, dated 2013)

Columns and labels:
[1] = system: MV4-11 (FLT3-ITD) cell line; experiment: In vitro cell activity assay (MTT cell viability, 72 hours); type: cell-based; conditions: Homo sapiens, 72 hours at 37° C., 10,000 cells per well, read-out: IC50 against MV4-11
Summary of the method: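 Compound serial dilutions applied to MV4-11 (FLT3-ITD) cells, 10,000 per well, for 72 hours at 37° C. Viability by MTT, formazan dissolved in DMSO, absorbance at 600 nm; IC50 by nonlinear regression as concentration halving absorbance versus untreated cells.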

KIT = KIT (Homo sapiens, UniProt P10721); experiment: Kinase panel assay (SelectScreen Kinase Profiling, Invitrogen); type: biochemical; conditions: 1000 nM of compound B26
Method: (§1) The kinase panel assay of compound B26 of this invention was performed by SelectScreen® Kinase Profiling Services of Invitrogen. The inhibitory effects of 1000 nM of compound B26 against various kinases whom shown >50% inhibitory effects are summarized in following Table 5.

FGFR3 K650E = FGFR3 K650E (Homo sapiens, UniProt P22607, K650E); experiment: as above; type: biochemical; conditions: 1000 nM of compound B26
Method: as §1

NTRK1 (TRKA) = NTRK1 (TRKA) (Homo sapiens, UniProt P04629); experiment: as above; type: biochemical; conditions: 1000 nM of compound B26
Method: as §1

NTRK2 (TRKB) = NTRK2 (TRKB) (Homo sapiens, UniProt Q16620); experiment: as above; type: biochemical; conditions: 1000 nM of compound B26
Method: as §1

SRC N1 = SRC N1 (Homo sapiens, UniProt P12931); experiment: as above; type: biochemical; conditions: 1000 nM of compound B26
Method: as §1

FGFR2 = FGFR2 (Homo sapiens, UniProt P21802); experiment: as above; type: biochemical; conditions: 1000 nM of compound B26
Method: as §1

PHKG1 = PHKG1 (Homo sapiens, UniProt Q16816); experiment: as above; type: biochemical; conditions: 1000 nM of compound B26
Method: as §1

RET V804L = RET V804L (Homo sapiens, UniProt P07949, V804L); experiment: as above; type: biochemical; conditions: 1000 nM of compound B26
Method: as §1

FLT3 D835Y = FLT3 D835Y (Homo sapiens, UniProt P36888, D835Y); experiment: as above; type: biochemical; conditions: 1000 nM of compound B26
Method: as §1

MAP4K5 (KHS1) = MAP4K5 (KHS1) (Homo sapiens, UniProt Q9Y4K4); experiment: as above; type: biochemical; conditions: 1000 nM of compound B26
Method: as §1

FLT4 (VEGFR3) = FLT4 (VEGFR3) (Homo sapiens, UniProt P35916); experiment: as above; type: biochemical; conditions: 1000 nM of compound B26
Method: as §1

FGFR3 = FGFR3 (Homo sapiens, UniProt P22607); experiment: as above; type: biochemical; conditions: 1000 nM of compound B26
Method: as §1

STK4 (MST1) = STK4 (MST1) (Homo sapiens, UniProt Q13043); experiment: as above; type: biochemical; conditions: 1000 nM of compound B26
Method: as §1

LYN B = LYN B (Homo sapiens, UniProt P07948); experiment: as above; type: biochemical; conditions: 1000 nM of compound B26
Method: as §1

FGFR1 = FGFR1 (Homo sapiens, UniProt P11362); experiment: as above; type: biochemical; conditions: 1000 nM of compound B26
Method: as §1

LYN A = LYN A (Homo sapiens, UniProt P07948); experiment: as above; type: biochemical; conditions: 1000 nM of compound B26
Method: as §1

KDR (VEGFR2) = KDR (VEGFR2) (Homo sapiens, UniProt P35968); experiment: as above; type: biochemical; conditions: 1000 nM of compound B26
Method: as §1

BLK = BLK (Homo sapiens, UniProt P51451); experiment: as above; type: biochemical; conditions: 1000 nM of compound B26
Method: as §1

NTRK3 (TRKC) = NTRK3 (TRKC) (Homo sapiens, UniProt Q16288); experiment: as above; type: biochemical; conditions: 1000 nM of compound B26
Method: as §1

AMPK A1/B1/G1 = AMPK A1/B1/G1 (Homo sapiens, UniProt Q13131); experiment: as above; type: biochemical; conditions: 1000 nM of compound B26
Method: as §1

FLT3 = FLT3 (Homo sapiens, UniProt P36888); experiment: as above; type: biochemical; conditions: 1000 nM of compound B26
Method: as §1

YES1 = YES1 (Homo sapiens, UniProt P07947); experiment: as above; type: biochemical; conditions: 1000 nM of compound B26
Method: as §1

FGR = FGR (Homo sapiens, UniProt P09769); experiment: as above; type: biochemical; conditions: 1000 nM of compound B26
Method: as §1

LCK = LCK (Homo sapiens, UniProt P06239); experiment: as above; type: biochemical; conditions: 1000 nM of compound B26
Method: as §1

RET Y791F = RET Y791F (Homo sapiens, UniProt P07949, Y791F); experiment: as above; type: biochemical; conditions: 1000 nM of compound B26
Method: as §1

CSF1R (FMS) = CSF1R (FMS) (Homo sapiens, UniProt P07333); experiment: as above; type: biochemical; conditions: 1000 nM of compound B26
Method: as §1

SRC = SRC (Homo sapiens, UniProt P12931); experiment: as above; type: biochemical; conditions: 1000 nM of compound B26
Method: as §1

RET = RET (Homo sapiens, UniProt P07949); experiment: as above; type: biochemical; conditions: 1000 nM of compound B26
Method: as §1

AMPK A2/B1/G1 = AMPK A2/B1/G1 (Homo sapiens, UniProt P54646); experiment: as above; type: biochemical; conditions: 1000 nM of compound B26
Method: as §1

Chain of PHKG1 (Q16816 whole entry): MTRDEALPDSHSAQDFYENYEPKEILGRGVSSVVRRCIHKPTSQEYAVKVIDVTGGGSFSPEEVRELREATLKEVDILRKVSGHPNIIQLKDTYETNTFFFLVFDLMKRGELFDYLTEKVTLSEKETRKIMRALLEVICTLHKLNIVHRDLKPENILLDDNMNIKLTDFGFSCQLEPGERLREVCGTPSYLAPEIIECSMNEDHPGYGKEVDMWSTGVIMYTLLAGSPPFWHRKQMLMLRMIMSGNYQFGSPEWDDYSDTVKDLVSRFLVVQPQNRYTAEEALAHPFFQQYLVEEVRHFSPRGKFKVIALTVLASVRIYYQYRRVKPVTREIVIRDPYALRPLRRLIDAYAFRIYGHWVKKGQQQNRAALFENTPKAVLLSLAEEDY
Chain of AMPK A2/B1/G1 (P54646 whole entry): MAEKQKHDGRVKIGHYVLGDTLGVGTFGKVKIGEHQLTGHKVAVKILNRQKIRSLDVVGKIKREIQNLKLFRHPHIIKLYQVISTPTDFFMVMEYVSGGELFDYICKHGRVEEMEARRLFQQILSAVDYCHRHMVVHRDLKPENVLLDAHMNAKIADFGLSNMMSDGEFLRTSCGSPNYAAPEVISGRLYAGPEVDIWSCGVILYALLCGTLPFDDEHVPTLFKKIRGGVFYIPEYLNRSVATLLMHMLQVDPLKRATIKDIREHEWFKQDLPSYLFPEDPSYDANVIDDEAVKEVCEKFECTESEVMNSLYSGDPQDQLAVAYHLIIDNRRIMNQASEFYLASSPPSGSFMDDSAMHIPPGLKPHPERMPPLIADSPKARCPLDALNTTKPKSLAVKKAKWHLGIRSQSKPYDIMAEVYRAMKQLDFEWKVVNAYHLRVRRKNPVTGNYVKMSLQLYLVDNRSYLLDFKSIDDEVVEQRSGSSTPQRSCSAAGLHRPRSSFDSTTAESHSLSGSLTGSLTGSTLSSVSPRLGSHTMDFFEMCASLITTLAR
Chain of AMPK A2/B1/G1 (Q9Y478 whole entry partner): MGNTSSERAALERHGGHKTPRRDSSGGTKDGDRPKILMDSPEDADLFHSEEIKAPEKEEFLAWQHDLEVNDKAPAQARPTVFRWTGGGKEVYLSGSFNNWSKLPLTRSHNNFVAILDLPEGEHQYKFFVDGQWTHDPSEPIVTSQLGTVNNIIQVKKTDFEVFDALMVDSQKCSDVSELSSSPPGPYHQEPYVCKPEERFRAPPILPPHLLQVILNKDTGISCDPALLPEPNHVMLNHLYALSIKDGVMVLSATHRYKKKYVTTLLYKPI
Chain of AMPK A2/B1/G1 (P54619 whole entry partner): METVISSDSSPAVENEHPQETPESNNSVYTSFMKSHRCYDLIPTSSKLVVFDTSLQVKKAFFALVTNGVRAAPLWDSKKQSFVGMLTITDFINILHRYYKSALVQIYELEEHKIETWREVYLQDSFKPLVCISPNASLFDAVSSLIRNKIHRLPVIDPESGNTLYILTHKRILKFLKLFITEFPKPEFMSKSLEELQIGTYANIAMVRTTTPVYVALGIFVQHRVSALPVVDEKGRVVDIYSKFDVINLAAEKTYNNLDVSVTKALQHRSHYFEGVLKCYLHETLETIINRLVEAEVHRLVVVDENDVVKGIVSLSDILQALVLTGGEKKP
Chain of NTRK3 (TRKC) (Q16288 32-839): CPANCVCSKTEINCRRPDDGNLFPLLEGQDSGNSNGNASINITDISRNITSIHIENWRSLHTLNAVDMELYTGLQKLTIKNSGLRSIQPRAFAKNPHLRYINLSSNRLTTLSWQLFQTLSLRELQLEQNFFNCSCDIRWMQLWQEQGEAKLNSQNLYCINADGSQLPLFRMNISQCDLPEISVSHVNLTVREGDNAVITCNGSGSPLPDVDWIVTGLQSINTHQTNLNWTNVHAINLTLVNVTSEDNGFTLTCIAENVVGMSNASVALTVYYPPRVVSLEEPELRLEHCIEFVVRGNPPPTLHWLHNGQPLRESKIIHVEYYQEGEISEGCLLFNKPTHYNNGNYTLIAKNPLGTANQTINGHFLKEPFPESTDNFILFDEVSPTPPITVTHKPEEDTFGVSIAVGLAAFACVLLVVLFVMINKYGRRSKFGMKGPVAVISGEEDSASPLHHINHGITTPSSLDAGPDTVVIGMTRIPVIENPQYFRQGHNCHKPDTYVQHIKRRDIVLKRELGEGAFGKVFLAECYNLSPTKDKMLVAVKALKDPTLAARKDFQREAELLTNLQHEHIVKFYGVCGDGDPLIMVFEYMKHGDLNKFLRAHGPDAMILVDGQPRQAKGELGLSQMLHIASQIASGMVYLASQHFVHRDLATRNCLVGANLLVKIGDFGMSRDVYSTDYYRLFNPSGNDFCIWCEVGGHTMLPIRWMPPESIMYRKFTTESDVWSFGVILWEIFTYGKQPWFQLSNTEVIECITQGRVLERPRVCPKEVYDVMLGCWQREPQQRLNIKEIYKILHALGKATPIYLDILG
Chain of NTRK1 (TRKA) (P04629 33-796): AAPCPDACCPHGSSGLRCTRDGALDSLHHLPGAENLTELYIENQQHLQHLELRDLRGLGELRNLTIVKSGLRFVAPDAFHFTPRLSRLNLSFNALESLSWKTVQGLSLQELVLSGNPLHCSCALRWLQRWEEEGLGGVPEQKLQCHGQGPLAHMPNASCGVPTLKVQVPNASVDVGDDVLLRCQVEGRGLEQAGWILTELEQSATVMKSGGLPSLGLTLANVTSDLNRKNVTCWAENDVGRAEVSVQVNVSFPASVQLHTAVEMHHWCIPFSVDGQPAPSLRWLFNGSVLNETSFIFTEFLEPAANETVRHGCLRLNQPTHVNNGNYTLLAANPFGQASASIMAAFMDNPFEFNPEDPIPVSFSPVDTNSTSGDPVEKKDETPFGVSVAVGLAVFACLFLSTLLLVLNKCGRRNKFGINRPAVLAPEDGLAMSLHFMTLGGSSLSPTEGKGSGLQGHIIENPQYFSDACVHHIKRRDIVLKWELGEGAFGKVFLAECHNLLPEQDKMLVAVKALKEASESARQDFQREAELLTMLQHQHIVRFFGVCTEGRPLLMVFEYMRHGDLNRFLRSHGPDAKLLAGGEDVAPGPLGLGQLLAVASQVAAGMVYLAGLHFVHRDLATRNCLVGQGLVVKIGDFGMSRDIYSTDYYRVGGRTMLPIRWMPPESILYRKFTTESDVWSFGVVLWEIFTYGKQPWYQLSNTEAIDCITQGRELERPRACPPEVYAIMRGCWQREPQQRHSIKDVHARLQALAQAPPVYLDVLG
Chain of FGFR3 (P22607 23-806): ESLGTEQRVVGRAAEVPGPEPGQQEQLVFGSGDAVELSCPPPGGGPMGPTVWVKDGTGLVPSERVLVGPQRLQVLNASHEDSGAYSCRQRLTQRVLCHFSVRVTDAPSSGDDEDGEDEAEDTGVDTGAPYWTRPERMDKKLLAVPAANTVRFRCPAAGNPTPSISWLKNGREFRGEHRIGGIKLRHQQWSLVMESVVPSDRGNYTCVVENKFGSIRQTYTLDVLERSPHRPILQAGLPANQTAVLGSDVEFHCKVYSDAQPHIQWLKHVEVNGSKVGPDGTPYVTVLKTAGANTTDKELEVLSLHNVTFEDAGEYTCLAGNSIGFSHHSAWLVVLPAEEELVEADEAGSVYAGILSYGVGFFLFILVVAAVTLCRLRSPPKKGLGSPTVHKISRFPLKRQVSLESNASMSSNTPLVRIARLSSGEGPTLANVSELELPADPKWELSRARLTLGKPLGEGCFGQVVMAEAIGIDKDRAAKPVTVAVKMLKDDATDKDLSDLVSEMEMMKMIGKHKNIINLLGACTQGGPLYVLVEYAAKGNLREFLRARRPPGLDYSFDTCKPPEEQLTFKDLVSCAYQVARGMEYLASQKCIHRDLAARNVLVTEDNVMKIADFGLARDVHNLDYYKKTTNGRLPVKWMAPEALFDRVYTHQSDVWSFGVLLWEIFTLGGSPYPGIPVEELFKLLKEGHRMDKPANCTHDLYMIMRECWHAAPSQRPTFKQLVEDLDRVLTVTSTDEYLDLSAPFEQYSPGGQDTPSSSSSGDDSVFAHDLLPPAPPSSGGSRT
Chain of MAP4K5 (KHS1) (Q9Y4K4 whole entry): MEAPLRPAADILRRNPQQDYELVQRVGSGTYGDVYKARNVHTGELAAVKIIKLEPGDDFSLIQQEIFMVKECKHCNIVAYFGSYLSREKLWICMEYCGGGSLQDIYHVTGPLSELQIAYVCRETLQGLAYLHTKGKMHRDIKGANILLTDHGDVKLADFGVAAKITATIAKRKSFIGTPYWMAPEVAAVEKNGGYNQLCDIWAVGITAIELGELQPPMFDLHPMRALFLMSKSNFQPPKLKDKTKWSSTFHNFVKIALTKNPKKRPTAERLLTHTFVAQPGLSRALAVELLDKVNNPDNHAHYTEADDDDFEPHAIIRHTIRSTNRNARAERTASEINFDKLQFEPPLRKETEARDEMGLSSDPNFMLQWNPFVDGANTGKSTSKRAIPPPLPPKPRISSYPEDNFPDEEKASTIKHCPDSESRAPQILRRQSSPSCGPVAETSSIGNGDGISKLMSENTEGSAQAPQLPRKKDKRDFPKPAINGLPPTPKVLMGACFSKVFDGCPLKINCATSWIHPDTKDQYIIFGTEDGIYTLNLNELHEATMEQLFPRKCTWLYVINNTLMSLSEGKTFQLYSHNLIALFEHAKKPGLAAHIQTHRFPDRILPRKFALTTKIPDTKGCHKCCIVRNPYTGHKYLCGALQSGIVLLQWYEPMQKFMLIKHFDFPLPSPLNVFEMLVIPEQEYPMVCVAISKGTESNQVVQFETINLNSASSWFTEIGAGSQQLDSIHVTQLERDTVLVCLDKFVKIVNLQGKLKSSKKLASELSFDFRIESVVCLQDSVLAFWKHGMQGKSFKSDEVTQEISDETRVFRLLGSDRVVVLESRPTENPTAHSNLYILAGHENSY
Chain of FGFR3 K650E (P22607 23-806 K650E): as the sequence (P22607 23-806) above, with K628E counted along it

IC50 [1]: 21.1 nM | inhibition at 1 µM (KIT): 61% | inhibition at 1 µM (FGFR3 K650E): 47% | inhibition at 1 µM (NTRK1 (TRKA)): 89% | inhibition at 1 µM (NTRK2 (TRKB)): 84% | inhibition at 1 µM (SRC N1): 52% | inhibition at 1 µM (FGFR2): 48% | inhibition at 1 µM (PHKG1): 53% | inhibition at 1 µM (RET V804L): 79% | inhibition at 1 µM (FLT3 D835Y): 98% | inhibition at 1 µM (MAP4K5 (KHS1)): 60% | inhibition at 1 µM (FLT4 (VEGFR3)): 50% | inhibition at 1 µM (FGFR3): 62% | inhibition at 1 µM (STK4 (MST1)): 59% | inhibition at 1 µM (LYN B): 51% | inhibition at 1 µM (FGFR1): 54% | inhibition at 1 µM (LYN A): 57% | inhibition at 1 µM (KDR (VEGFR2)): 64% | inhibition at 1 µM (BLK): 52% | inhibition at 1 µM (NTRK3 (TRKC)): 76% | inhibition at 1 µM (AMPK A1/B1/G1): 88% | inhibition at 1 µM (FLT3): 95% | inhibition at 1 µM (YES1): 73% | inhibition at 1 µM (FGR): 69% | inhibition at 1 µM (LCK): 63% | inhibition at 1 µM (RET Y791F): 79% | inhibition at 1 µM (CSF1R (FMS)): 60% | inhibition at 1 µM (SRC): 50% | inhibition at 1 µM (RET): 81% | inhibition at 1 µM (AMPK A2/B1/G1): 70%
Compound: CN1CCN(c2ccc3[nH]c(-c4c5cccccc-5[nH]c4=O)nc3c2)CC1 [Compound B26]
